One data set concerns the target HLA-A*0201 (Homo sapiens, UniProt P04439, D140Y/D185E/D98H/E176V/E277Q/G131W/G231S/I119V/I121R/I166T/I218V/L300P/L318F/N151K/N90K/P208A/P217A/Q86G/Q94H/R138H/R169H/T345S). The conditions noted are these: cited from earlier work; for IC50: read-out: cell-free systems (^125I) IC50, published values, 125I peptide tracer.
The target of data set [1] is T1, sHLA-A*0201 (Homo sapiens, UniProt P04439, D140Y/D185E/D98H/E176V/E277Q/G131W/G231S/I119V/I121R/I166T/I218V/L300P/L318F/N151K/N90K/P208A/P217A/Q86G/Q94H/R138H/R169H/T345S). The experiment in a line: biochemical. The conditions noted are these: for kon: read-out: association rate constants kon.
Data set [2] has as its target T1, sHLA-A*0201. The experiment in a line: biochemical. The data set is classed as binding. The arrangement: contained the leader peptide, as well as the α1, α2, and α3 coding domains of the HLA heavy chain; made in house; β2m from Fitzgerald Industries International.
The target of the next data set is T2, A*1102 (Homo sapiens, UniProt P04439, A114D/D185E/E176A/E43K/F33Y/L180Q/S129P/T187R).
T2 construct: contained the leader peptide, as well as the α1, α2, and α3 coding domains of the HLA heavy chain; made in house
Briefly: Multiple-specificity screening of FITC-labeled peptides (supertyping, FP). The data set is classed as binding. The conditions noted are these: 2 nM peptide, 100 μg/ml activated sHLA. An excerpt:
(§1) Multiple-specificity screening of FITC-labeled peptides: To approach the problem of supertype analysis, a novel, state-of-the-art screening assay was developed that utilizes high quality soluble HLA and the technique of fluorescence polarization (FP). This assay combination allows the direct measurement of the ratio between free and bound labeled ligand in solution without any separation steps. The technique of FP is based on the principal that if a fluorescent-labeled peptide binds to the sHLA molecule of higher molecular weight, polarization values will increase due to the slower molecular rotation of the bound probe.
(§2) To elaborate peptide cross-reactivity among MHC class I molecules, a panel of 53 single-specificity sHLA receptors was screened for their binding capacity towards a series of fluorescent-labeled peptide ligands. During the process, each peptide candidate (2 nM) was incubated with 100 μg/ml of activated sHLA and peptide/MHC interaction was monitored over time on the Analyst™ AD Assay Detection System (Molecular Devices; Sunnyvale, Calif.). For optimal signal output, b2-microglobulin was added in 2× molar excess of the used sHLA concentration. For all preparations, 1× BGG/PBS was used as buffer. The use of appropriate controls allowed accurate estimation of specific polarization. […]

The test system of data set [3] is alleles listed for the B27 supertype. Described as above. The data set is classed as binding, human. The conditions noted are these: 2 nM peptide, 100 μg/ml activated sHLA.
Excerpt: as §1, §2

The target of data set [4] is T1, sHLA-A*0201. The experiment in a line: Epitope screening at a threshold concentration of 80 μM (FP competition). The conditions noted are these: 80 μM peptide, 50 μg/mL sHLA-A*0201, 1 nM P5, β2m 2117 nM.
The target in data set [5] is T1, sHLA-A*0201. The experiment in a line: Multiple specificity screening by FP. The data set is classed as binding. The arrangement: contained the leader peptide, as well as the α1, α2, and α3 coding domains of the HLA heavy chain; made in house; β2m from Fitzgerald Industries International. The conditions noted are these: 10 nM peptide, 100 μg/mL activated sHLA. The method, then:
Multiple Specificity Screening. To determine the specificity for sHLA-A*0201 as well as potential cross-reactivity to other sHLA alleles, 48 different sHLA alleles were screened for binding with the A*0201 pFITC constructs (FIG. 15). For screening purposes, each peptide candidate (10 nM) was incubated with 100 μg/mL activated sHLA, and the peptide/HLA interaction was monitored over time. As expected, no significant binding was detected to any of the B-alleles tested (FIG. 15B), whereas a high binding affinity was observed between sHLA-A*0201 and the pFITC candidates. An exception was pFITC P3 (FIG. 15A). […] The significant decrease in association kinetics recorded after 0.8 h seems to imply that the HLA class I molecule is not stabilized following exposure to this peptide, irrespective of whether it attempted to bind. […] Thus, modification of the residue at the P4 nonanchor position of pFITC P3 may not affect the specificity and association kinetics of peptide binding but rather seems to affect the stability of the class I peptide interaction.

Data set [6] deals with T1, sHLA-A*0201. The data set is classed as binding. More on the design: contained the leader peptide, as well as the α1, α2, and α3 coding domains of the HLA heavy chain; made in house; β2m from Fitzgerald Industries International. The conditions noted are these: 10 nM pFITC, sHLA-A*0201 titration.
The conditions of data set [7]: cited from earlier work.
Where [8] appears, read: read-out: dissociation rate constants.
Setting [9] is: read-out: dissociation rate constants koff.
[10] abbreviates: 50 μg/mL (1059 nM) sHLA-A*0201, β2m 2117 nM, 1 nM FITC-labeled reference peptide P5, read-out: StD comp assay (FP) IC50.

Read-outs that look alike come from different tables or passages of the source. Ends that are not written are not given here. Peptide text beside a SMILES is read from it. * marks the point of attachment. FITC = O=C1OC2(c3ccc(O)cc3Oc3cc(O)ccc32)c2ccc(NC(=S)*)cc21; 125I = [125I]*

A word on the IC50: it is the concentration needed to halve the response being measured. Regarding `CC[C@H](C)[C@H](NC(=O)[C@H](Cc1c[nH]c2ccccc12)NC(=O)[C@@H](NC(=O)CNC(=O)[C@H](Cc1ccccc1)NC(=O)[C@H](CO)NC(=O)[C@@H](NC(=O)[C@H](CC(C)C)NC(=O)[C@@H](N)Cc1ccc(O)cc1)C(C)C)C(C)C)C(=O)O`, the IC50 at HLA-A*0201 was 1.9 nM.

What is called kon is the second-order rate constant of association. Turning to `CC(C)C[C@H](N)C(=O)N[C@H](C(=O)N[C@@H](Cc1ccccc1)C(=O)NCC(=O)N[C@@H](CCCCNC(=S)Nc1ccc2c(c1)C(=O)OC21c2ccc(O)cc2Oc2cc(O)ccc21)C(=O)N[C@@H](CCC(=O)O)C(=O)N[C@H](C(=O)N[C@H](C(=O)N[C@@H](CCC(=O)O)C(=O)N[C@H](C(=O)O)C(C)C)C(C)C)C(C)C)C(C)C` [P4, L V F G K E V V E V] (H-LVFGK(FITC)EVVEV-OH), the kon on sHLA-A*0201 [1] amounted to 9900 M⁻¹ s⁻¹. In addition, the values for the koff on sHLA-A*0201 [1] (setting [8]) and at sHLA-A*0201 [1] (setting [9]) were 0.00019 to 0.00043 s⁻¹ and 0.000284 s⁻¹, respectively.

For `CSCC[C@H](NC(=O)[C@H](CC(C)C)NC(=O)[C@H](C)N)C(=O)N[C@@H](CC(=O)O)C(=O)N[C@@H](CCCCN)C(=O)N[C@H](C(=O)N[C@@H](CC(C)C)C(=O)N[C@@H](CCCCNC(=S)Nc1ccc2c(c1)C(=O)OC21c2ccc(O)cc2Oc2cc(O)ccc21)C(=O)N[C@H](C(=O)O)C(C)C)C(C)C` [P5], on sHLA-A*0201 [1], the kon was 86800 M⁻¹ s⁻¹. The koff at sHLA-A*0201 [1] (setting [8]) was 0.00019 to 0.00043 s⁻¹; at sHLA-A*0201 [1] (setting [9]), 0.000188 s⁻¹.

In the case of DLVHFASPL, the IC50 at HLA-A*0201 was 16700 nM; on sHLA-A*0201 [2] (setting [10]) it was 366000 nM.

For the molecule “FLPSDY(^125I)FPSV (FLPSDY(125I)FPSV; listed as Homo sapiens) [iodinated molecule of earlier publications (Sette et al., 1994a)]”, in the data set with HLA-A*0201 (Sette et al., 1994a, read-out: affinity of the iodinated molecule in earlier publications), the Kd was 15.5 nM.

With GRAFVTIKK, in the data set with A*1102, the binding capacity entry is “high A*1102 binding capacity”. In [3], the binding entry is on record as “did not bind”.

With KLGEFYNQMM, the results for the IC50 at sHLA-A*0201 [2] (setting [10]), against sHLA-A*0201 [2] (IC50 with different pFITC reference peptides) and at sHLA-A*0201 [2] (IC50 within the different tracer systems) were 2820 nM, 2480 to 10500 nM and 2480 to 10500 nM, respectively.

In the case of LVMAPRTVL (listed as Homo sapiens), the “inhibition at 80 μM” value in the data set with sHLA-A*0201 [4] is recorded as “minor”.

Turning to “N L S K L S L D V (NLSKLSLDV; also: FITC label, position not given here; listed as Homo sapiens) [P3]”, the binding result in the data set with sHLA-A*0201 [5] was “failed to attain a higher polarization level compared to the other candidates”. For the same molecule, in the data set with sHLA-A*0201 [6], the “saturation curve / stable complex formation with sHLA-A*0201” value is on record as “not able to form stable complexes with sHLA-A*0201”.

As to YLLPAIVHI, the IC50 was 18 nM on HLA-A*0201 and 510 nM at sHLA-A*0201 [2] (setting [10]).

As to fluorescein isothiocyanate [FITC], the pKa result in data set [7] was “approximately 6.5”.

Values taken from patent publication US20070026433A1, “Epitope testing using soluble HLA” (priority 2001, published 2007).
